Results reported in patent US20250228762A1, “COSMETIC COMPOSITION COMPRISING LUTEIN AND A POLYSACCHARIDE” (ALGAKTIV, S.L., priority 2022, published 2025).

Legend:
Type in all cases: cell-based
RAR gamma = RAR gamma agonist assay (SelectScreen GeneBLAzer, UAS-bla HEK 293T)
Procedure: (§1) An agonist assay for RAR was performed by SelectScreen® Cell-Based Nuclear Receptor Profiling Service of Life Technologies. In this assay, an engineered cell line (UAS-bla HEK 293T) expressing RARalpha, RARbeta or RAR gamma is used to test the action of lutein. GeneBLAzer® technology, based on mammalian-optimized Beta-lactamase reporter gene (bla) combined with a FRET-enabled substrate, provides the assay with a sensitive detection method. […] The plate is incubated for 16-24 hours at 37° C./5% CO2 in a humidified incubator. 8 μL of 1 μM Substrate Loading Solution is added to each well and the plate is incubated for 2 hours at room temperature. The plate is read on a fluorescence plate reader.

RARbeta = assay: RAR beta agonist assay (SelectScreen GeneBLAzer, UAS-bla HEK 293T)
Procedure: as §1

RARalpha = assay: RAR alpha agonist assay (SelectScreen GeneBLAzer, UAS-bla HEK 293T)
Procedure: as §1

[1] = at any concentration below 3.2 μM

Row | EC50 (RAR gamma; RAR-gamma-UAS-bla HEK 293T, FIG. 4, read-out: EC50 (control agonist, RAR gamma)) [nM] | EC50 (RARbeta; RAR-beta-UAS-bla HEK 293T, FIG. 3, read-out: EC50 (control agonist, RAR beta)) [nM] | EC50 (RARalpha; RAR-alpha-UAS-bla HEK 293T, FIG. 2, read-out: EC50 (control agonist, RAR alpha)) [nM] | Compound | agonist effect on RAR gamma (RAR gamma; [1]) | concentrations at which a specific RAR-beta partial agonist effect could be measured (RARbeta; RAR-beta-UAS-bla HEK 293T) | RAR-beta activation (RARbeta; at 3.16 μM) [%] | agonist effect on RAR alpha (RARalpha; [1])
1 | 0.131 | 0.46 | […] | CC1=C(/C=C/C(C)=C/C=C/C(C)=C/C(=O)O)C(C)(C)CCC1 [ATRA, reference compound] | – | – | – | –
2 | – | – | – | CC1=C[C@H](O)CC(C)(C)[C@H]1/C=C/C(C)=C/C=C/C(C)=C/C=C/C=C(C)/C=C/C=C(C)/C=C/C1=C(C)C[C@@H](O)CC1(C)C [Lutein, (1R,4R)-4-{(1E,3E,5E,7E,9E,11E,13E,15E,17E)-18-[(4R)-4-Hydroxy-2,6,6-trimethylcyclohex-1-en-1-yl]-3,7,12,16-tetramethyloctadeca-1,3,5,7,9,11,13,15,17-nonaen-1-yl}-3,5,5-trimethylcyclohex-2-en-1-ol] | No agonist effect | above 100 nm | ~40 | No agonist effect
